Experimental data as given in ChEMBL document CHEMBL3507680, “University of Dundee, Gates Library screen for HepG2 cell viability”.

Assay: Human HepG2 cell viability assay in 384 well format
Assay type: toxicity, cell-based
Parameters: dose 125 nL, time 70.5 hour; concentration not given beside the values
Settings: HepG2 cells, read-out: Inhibition

Structure (SMILES) | cytotoxicity at 70.5 h
O=C(Nc1ccc(CC(=O)N2CCSCC2)cc1)NC1CC1 | 14.5%
CN1CCC(N(C)C(=O)CSc2ccc(F)c(F)c2)C1=O (stereo unspecified) | -2.06%
CC(C)Nc1ncccc1C(=O)NCc1ccnn1C | 6.47%
CC(C)Nc1ncccc1C(=O)NCc1cnc(N(C)C)n1C | -14.4%
CCN(Cc1cccc(-c2ccncc2)c1)S(N)(=O)=O | -2.79%
Cc1cc(NCC2(O)CCOCC2)c2ccccc2n1 | -4.68%
CS(=O)(=O)NCCN1CCOC2(CCc3ccccc32)C1 (stereo unspecified) | -7.71%
OC1(CNc2cc(C(F)(F)F)nc3ccccc23)CCOCC1 | -4.81%
CCOc1ccccc1C(CC(=O)Nc1ccccc1)NC(C)=O (stereo unspecified) | -6.59%
CCCN(C(=O)c1ocnc1C)C1CCCN(Cc2ccccc2)C1 (stereo unspecified) | -5.56%
CSc1ccc(NCc2csc(CS(C)(=O)=O)n2)cc1F | -1.97%
O=C(N1CCC(Oc2ccncc2)C1)C1(c2cccc(F)c2)CC1 (stereo unspecified) | -1.35%
CSc1ccc(NCc2csc(C)n2)cc1F | -0.888%
CC(C)c1ccc(CCC(=O)N(C)C2CCN(C)C2=O)cc1 (stereo unspecified) | -1.43%
c1ccc2c(c1)CCC21CN(CCc2ccncc2)CCO1 (stereo unspecified) | -4.57%
Cc1noc(CNc2cccc(C(=O)N3CCCC(O)C3)c2)n1 (stereo unspecified) | -6.36%
CCN(Cc1cccc(-c2ccncc2)c1)S(C)(=O)=O | -4.62%
Cc1n[nH]c(C2CN(C(=O)c3ccc(=O)n(C)c3)CCO2)n1 (stereo unspecified) | 25.4%
CC(C)N(C)C(=O)C1CCN(Cc2cc3c(cc2O)CCC3)CC1 | -5.17%
Cc1cccn2cc(CN3CCCC(c4ccn[nH]4)C3)nc12 (stereo unspecified) | 0.654%
CN(Cc1ccsc1)C(=O)c1ccc(F)c(NS(C)(=O)=O)c1 | -3.77%
CN(CC(F)(F)F)C(=O)c1ccc(F)c(NS(C)(=O)=O)c1 | -1.16%
Cc1cc(NC(=O)CN2CCCC(Cn3cncn3)C2)no1 (stereo unspecified) | -3.46%
CC(C)(C)NS(=O)(=O)c1ccccc1CNCc1ccccc1 | -5.72%
CC(C)c1cc(NC(=O)CN2CCCC(Cn3cncn3)C2)on1 (stereo unspecified) | 17.9%

Structure (SMILES) | cytotoxicity at 70.5 h
O=C(Nc1ccnc2ccnn12)c1ccc(NC2CC2)nc1 | -1.35%
Cc1cccn2cc(CN3CCCC(c4noc(C5CC5)n4)C3)nc12 (stereo unspecified) | 5.44%
O=C(c1[nH]nc(C2CC2)c1Cl)N1CCN(C2CC2)C(=O)C1 | -1.73%
Cc1nn(C)c(C)c1OCC(=O)N1CCCC1 | -6%
O=c1[nH]c2ccccc2c(=O)n1Cc1nnnn1C1CC1 | 2.86%
Cc1ccc(C(C)(O)CNC(=O)c2sccc2OC(F)F)o1 (stereo unspecified) | -12%
Cc1ccc(C(C)(O)CNC(=O)c2scnc2C)o1 (stereo unspecified) | -3.68%
CCC(C)(C)C(=O)NCCCOC1CCOC1 (stereo unspecified) | 2.9%
O=C(c1ncoc1C1CCCO1)N1CC2(CCCC2)c2ccccc21 (stereo unspecified) | -6.29%
COCCN(C)c1ccc(NCc2cccnc2)nc1 | 5.65%
O=C(c1cc[nH]c(=O)c1)N1CCn2c(nnc2-c2ccccc2)C1 | -4.86%
CCOC(C)c1nc(Cn2cc(C(=O)NC)ccc2=O)cs1 (stereo unspecified) | -4.29%
Cc1cnn(C2CCCN(C(=O)c3c(C)oc(C)c3C)C2)c1 (stereo unspecified) | -0.501%
CNC(=O)Cc1ccccc1NC(=O)C1CCCC1 | 29.2%
CCC1CN(c2cnn(-c3ccccc3)c(=O)c2Cl)CCO1 (stereo unspecified) | -12.4%
COc1ccc(C)cc1CCNS(C)(=O)=O | -10.4%
COCCOCCNS(=O)(=O)C1CS(=O)(=O)c2ccccc21 (stereo unspecified) | -7.79%
CCC(=O)N1CSCC1C(=O)Nc1ccccc1-c1cccs1 (stereo unspecified) | -9.09%
CCC(=O)N1CCN(C(=O)Nc2ccccc2-c2cccs2)CC1 | -5.63%
Cn1ccnc1CCNS(=O)(=O)Cc1cccc(C#N)c1 | -8.33%
Cc1nc(C2(NCc3ccc(C#N)cc3F)CCCC2)no1 | -18.6%
CS(=O)(=O)N1CCC(CSc2ccccc2)C1 (stereo unspecified) | -13.4%
O=C(NC1CCCN(c2ccc(OC(F)F)cc2)C1)c1cnccn1 (stereo unspecified) | -6.56%
CC(C)NC(=O)CC(C)NC(=O)N(C)Cc1cc(Cl)cn1C (stereo unspecified) | -8.56%
O=C(Nc1ccccc1-c1cccs1)N1CCN(CC(F)F)CC1 | -11.6%

Structure (SMILES) | cytotoxicity at 70.5 h
Cc1cccc(C)c1CNC1(CCO)CCOCC1 | -16%
O=C(Nc1ccccc1-c1cccs1)N1CCOCC1 | -13.2%
CCCN(CCC)S(=O)(=O)NCCc1cc(C)ccc1OC | -8.2%
CN(Cc1ccco1)C(=O)NCC(c1cccs1)N(C)C (stereo unspecified) | -11.2%
CCN(Cc1ccco1)C(=O)NCC(c1cccs1)N(C)C (stereo unspecified) | 20.6%
CCc1ccc(CNc2ccccc2CN2CCC(O)CC2)o1 | -9.23%
COc1cc(OC)cc(C2(O)CCN(Cc3ncc(C)o3)CC2)c1 | 18.5%
CC(C)c1nc2c(n1C)CCN(CCc1ccccn1)C2 | -4.15%
CCCS(=O)(=O)N1CCCC1c1cccc(N(C)C)c1 (stereo unspecified) | -11.2%
CCN(CC)C(=O)C1CCN(c2ccc(Cl)cc2C#N)CC1 | 10.1%
Cc1ccc(C2CSCCN2C(=O)c2ccnc(N(C)C)c2)o1 (stereo unspecified) | 18.6%
N#Cc1ccc(CN2CCNC(=O)C2c2cccs2)cc1 (stereo unspecified) | -3.15%
CCCC(=O)N(C)c1cc(C#N)c2ccccc2n1 | -2.82%
CN(C(=O)CCc1nc(C2CC2)no1)c1cc(C#N)c2ccccc2n1 | 0.74%
Cc1ccc(C2CSCCN2C(=O)c2cccs2)o1 (stereo unspecified) | 19.9%
Cc1cc(F)ccc1S(=O)(=O)N1CCN(C)c2ccncc21 | 4.79%
O=C(NCC(CO)Cc1ccc(Cl)cc1)c1ccncc1F (stereo unspecified) | -1.03%
CNC(=O)c1cc(C)ccc1NCc1cn2cc(C)ccc2n1 | -2.87%
COCCNC(=O)N1CCCCC1CNC(=O)Nc1ccccc1 (stereo unspecified) | -3.88%
OC(COCc1cccs1)Cn1cc(-n2cccc2)cn1 (stereo unspecified) | 2.56%
CC(=O)Nc1cc2c(cc1C)OCO2 | 21.5%
CC1c2cccn2CCN1C(=O)CCc1nc(C2CC2)no1 (stereo unspecified) | -8.57%
CC(=O)N1CCN(C(C)c2ccc(Br)cc2)CC1 (stereo unspecified) | -0.505%
COCCNC(=O)N1CCCC1COc1ccccc1 (stereo unspecified) | -8.27%
CC(=O)N1CCSCC1c1ccc(C)o1 (stereo unspecified) | -8.59%

Structure (SMILES) | cytotoxicity at 70.5 h
OCCN1CCN(CCOCC(F)(F)F)CC1 | 10.9%
Cc1cccc(CN(Cc2ccccn2)S(=O)(=O)N(C)C)c1 | 18.6%
Fc1ccc(OCCNC2CCN(Cc3ccncc3)CC2)c(F)c1 | 12.1%
Cc1cc(NCc2ccc(S(N)(=O)=O)cc2)nc(C)n1 | -13.8%
Cc1nc(C(C)C)sc1C(=O)NCC(C)(C)N1CCOCC1 | -8.1%
CC(C)C(Sc1nnc(NC2CC2)s1)C(=O)NCc1cccnc1 (stereo unspecified) | -15.5%
CCNc1nnc(SC(C(=O)NCc2cccnc2)C(C)C)s1 (stereo unspecified) | -14.3%
N#Cc1ccc(NC2CCN(CC(F)F)CC2)c(F)c1 | -15.5%
N#Cc1ccc(NC2CCN(Cc3ccccn3)CC2)c(F)c1 | -9.28%
CC(C)C(Sc1cccs1)C(=O)NCc1cccnc1 (stereo unspecified) | -14.6%
CSC(C)C(=O)NS(=O)(=O)c1ccc(F)c(C(F)(F)F)c1 (stereo unspecified) | 22.2%
O=C(NCCc1nncn1C1CC1)c1cc2ccccn2c1 | -10.9%
CC(C)(C)C(CCO)NC(=O)Nc1ccccc1 (stereo unspecified) | -9.49%
COc1ccccc1CN(CC1CCCO1)C(=O)c1csnn1 (stereo unspecified) | -12.2%
CCN(Cc1ccoc1)C(=O)C1CCN(C(=O)OC(C)(C)C)C1 (stereo unspecified) | 18.9%
Cc1nc(C2CN(Cc3ccc(F)cc3Br)CCO2)no1 (stereo unspecified) | -5.56%
CCOCCN1CCN(CCOCC(F)(F)F)CC1 | -8.54%
CCOCCN(C)C(=O)Nc1cccc2c1CCN(CC)C2 | 10.2%
CC(C)CC(NC(=O)CSc1ccc(F)c(Cl)c1)C(=O)O (stereo unspecified) | -18.4%
O=S(=O)(NCc1ccc(S(=O)(=O)N2CCCC2)s1)c1ccc(Cl)cc1 | -12.5%
O=S(=O)(NCc1ccc(S(=O)(=O)N2CCCC2)s1)c1ccc(Cl)c(Cl)c1 | -22.7%
NC(=O)CNC(=O)c1ccc(CNCc2ccc(F)cc2F)cc1 | -23.7%
NC(=O)CNC(=O)c1ccc(CNCc2ccc(Cl)cc2Cl)cc1 | -28%
CN(C(=O)Cn1nnnc1C(C)(C)C)c1ccccc1 | -19.5%
Cn1c(CCN2CCN(c3ccc(O)cc3)CC2)nc2ccccc21 | 14.6%

Structure (SMILES) | cytotoxicity at 70.5 h
CC(C)c1noc(OCc2cccc(C#N)c2)n1 | -11.8%
CC(C)c1noc(OCc2cccc(S(=O)(=O)N(C)C)c2)n1 | -17.9%
O=C(NCCCc1nc(=O)[nH][nH]1)c1ccc(Cl)cn1 | -15.2%
Cc1cccc2c1C(=O)NC1(CCOCC1)N2 | -13.5%
O=S(=O)(Cc1ccc(F)c(Cl)c1)NCCOc1cccnc1 | 3.53%
CCc1nc(CCNc2ccc(S(N)(=O)=O)cc2C#N)cs1 | -21%
CNS(=O)(=O)CCCN(C)Cc1cc(C)ccc1OC | -13.2%
Cc1ccc(SC2CCCC2)c(C(=O)NCc2n[nH]c(=O)[nH]2)c1 | -11.2%
Fc1ccc(C(NCc2nnc(C3CC3)o2)C2CCC2)cc1 (stereo unspecified) | -4.6%
COCC(=O)NC1(c2cccc(C(F)(F)F)c2)CCC1 | -14.5%
CN(CCN1CCOC1=O)CC(=O)Nc1ccc(Cl)c(Cl)c1 | -20.1%
CC(CNC(=O)c1ccn(-c2ccc(F)cc2)n1)Cn1cccn1 (stereo unspecified) | -22.8%
Fc1ccc(C(NCc2nnc(-c3ccco3)o2)C2CCC2)cc1 (stereo unspecified) | -12%
CO[C@H]1CN(C(=O)OC(C)(C)C)CC1NCc1ccco1 (stereo partly specified) | -24.9%
CO[C@H]1CN(C(=O)OC(C)(C)C)CC1NCc1ccoc1 (stereo partly specified) | -13.8%
CC1CCCN(C(=O)c2ncncc2Cl)C1 (stereo unspecified) | 12.9%
O=C(c1ccccc1)N1CCCN(C(=O)c2ncncc2Cl)CC1 | 15.9%
COCc1ccccc1C(=O)NCCCN1CCCC1C(=O)N(C)C (stereo unspecified) | 7.28%
COc1ncccc1C(=O)NCC1Cc2ccccc2O1 (stereo unspecified) | -6.43%
O=C(NCCCn1nc2ccccn2c1=O)NC1CCC(O)CC1 (stereo unspecified) | 9.94%
CC(C)S(=O)(=O)NCC1CCCN(C(=O)c2cccnc2)C1 (stereo unspecified) | -7.06%
